Values of other authors in patent US20130202706A1 (DRUGGABILITY TECHNOLOGIES IP HOLDCO (JERSEY) LTD., priority 2010, published 2013).

Conditions: oral administration

systemic availability of HMG-CoA reductase inhibitory activity: approximately 30%
Structure (SMILES): CC(C)c1c(C(=O)Nc2ccccc2)c(-c2ccccc2)c(-c2ccc(F)cc2)n1CC[C@@H](O)C[C@@H](O)CC(=O)O [Atorvastatin]
